One test deals with PI 4-kinase beta (Homo sapiens (Human), UniProt Q9UBF8). Particulars: read-out: Assay D PI4Kβ IC50.
Another test has as its target Vps34 (Homo sapiens (Human), UniProt Q8NEB9). To be noted: read-out: Assay C VPS34 IC50.

Counter-ions that a name gives are not always drawn. Bounds are passed on as bounds.

As a reminder, the IC50 is the concentration needed to halve the response being measured.

Chain of PI 4-kinase beta (Q9UBF8 whole entry): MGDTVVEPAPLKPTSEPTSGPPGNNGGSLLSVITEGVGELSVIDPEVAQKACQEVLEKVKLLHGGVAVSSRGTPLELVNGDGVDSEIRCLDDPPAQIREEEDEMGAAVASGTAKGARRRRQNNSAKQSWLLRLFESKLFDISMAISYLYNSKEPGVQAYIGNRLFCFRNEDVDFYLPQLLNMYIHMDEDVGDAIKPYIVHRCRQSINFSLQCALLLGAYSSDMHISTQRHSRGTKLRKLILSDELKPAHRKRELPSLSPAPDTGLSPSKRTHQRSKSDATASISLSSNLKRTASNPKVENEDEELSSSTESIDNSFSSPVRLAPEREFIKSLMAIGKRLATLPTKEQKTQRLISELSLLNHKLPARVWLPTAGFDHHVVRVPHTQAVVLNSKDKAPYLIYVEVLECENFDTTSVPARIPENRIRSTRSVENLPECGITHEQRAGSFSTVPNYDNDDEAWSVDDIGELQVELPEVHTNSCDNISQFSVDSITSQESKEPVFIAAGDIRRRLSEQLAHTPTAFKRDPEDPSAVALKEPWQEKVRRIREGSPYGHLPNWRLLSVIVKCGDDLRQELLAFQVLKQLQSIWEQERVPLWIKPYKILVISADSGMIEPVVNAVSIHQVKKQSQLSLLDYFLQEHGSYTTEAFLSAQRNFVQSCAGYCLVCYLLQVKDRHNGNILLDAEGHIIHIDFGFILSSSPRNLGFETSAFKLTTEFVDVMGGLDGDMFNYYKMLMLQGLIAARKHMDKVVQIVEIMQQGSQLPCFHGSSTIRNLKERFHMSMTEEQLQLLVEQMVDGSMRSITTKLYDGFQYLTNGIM
Chain of Vps34 (Q8NEB9 whole entry): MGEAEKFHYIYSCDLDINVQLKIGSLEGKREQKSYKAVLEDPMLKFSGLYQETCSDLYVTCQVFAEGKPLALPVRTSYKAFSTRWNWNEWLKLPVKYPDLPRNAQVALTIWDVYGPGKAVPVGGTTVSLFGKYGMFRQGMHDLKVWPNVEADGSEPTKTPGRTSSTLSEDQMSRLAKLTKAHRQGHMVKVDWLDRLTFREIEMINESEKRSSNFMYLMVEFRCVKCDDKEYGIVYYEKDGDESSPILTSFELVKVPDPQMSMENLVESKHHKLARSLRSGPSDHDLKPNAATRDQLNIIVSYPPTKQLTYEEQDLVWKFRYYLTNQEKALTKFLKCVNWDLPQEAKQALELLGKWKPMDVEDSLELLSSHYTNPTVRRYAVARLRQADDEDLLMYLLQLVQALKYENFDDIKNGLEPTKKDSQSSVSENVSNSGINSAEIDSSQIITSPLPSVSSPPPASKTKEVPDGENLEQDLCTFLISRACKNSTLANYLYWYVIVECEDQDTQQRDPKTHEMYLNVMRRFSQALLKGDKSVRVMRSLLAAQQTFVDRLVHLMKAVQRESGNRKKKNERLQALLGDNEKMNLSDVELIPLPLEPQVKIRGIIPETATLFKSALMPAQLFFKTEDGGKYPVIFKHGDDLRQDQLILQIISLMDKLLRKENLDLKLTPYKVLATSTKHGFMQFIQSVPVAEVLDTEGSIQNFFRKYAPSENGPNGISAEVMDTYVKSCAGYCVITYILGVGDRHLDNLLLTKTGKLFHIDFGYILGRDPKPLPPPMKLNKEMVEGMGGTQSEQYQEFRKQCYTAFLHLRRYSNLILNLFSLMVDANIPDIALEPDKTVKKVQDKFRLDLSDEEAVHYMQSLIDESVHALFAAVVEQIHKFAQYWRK

For the compound `Cc1cc(-c2cc(-c3cc(S(=O)(=O)NCCC4CCOCC4)ccc3C)cnc2N)on1` [Example 19.12, 3-(6-amino-5-(3-methylisoxazol-5-yl)pyridin-3-yl)-4-methyl-N-(2-(tetrahydro-2H-pyran-4-yl)ethyl)benzenesulfon-amide trifluoroacetic acid salt], the IC50 was 4.3 µM on PI 4-kinase beta and over 10 µM at Vps34.
Turning to `Cc1ncc(-c2cc(-c3cc(S(=O)(=O)NOCC(C)(C)O)ccc3C)cnc2N)o1` [Example 107, 3-(6-amino-5-(2-methyloxazol-5-yl)pyridin-3-yl)-N-(2-hydroxy-2-methylpropoxy)-4-methylbenzenesulfonamide hydrochloride], the results for the half-maximal inhibitory concentration (IC50) at PI 4-kinase beta and at Vps34 were 0.66 µM and over 10 µM, respectively.
For `Cc1ncc(-c2cc(-c3cc(S(=O)(=O)N[C@H]4CC[C@H](CO)CC4)ccc3C)cnc2N)o1` [Example 104.11, 3-(6-amino-5-(2-methyloxazol-5-yl)pyridin-3-yl)-N-((1r,4r)-4-(hydroxymethyl)cyclo-hexyl)-4-methylbenzenesulfon-amide], the IC50 at PI 4-kinase beta stood at 0.5 µM; at Vps34 it was 0.3 µM.
Turning to `Cc1ncc(-c2cc(-c3cc(S(=O)(=O)NCC4(O)COC4)ccc3C)cnc2N)o1` [Example 104.7, 3-(6-amino-5-(2-methyloxazol-5-yl)pyridin-3-yl)-N-((3-hydroxyoxetan-3-yl)methyl)-4-methylbenzenesulfon-amide], the IC50 on PI 4-kinase beta is 1.8 µM; on Vps34, 3.2 µM.
On to `Cc1noc(-c2cc(-c3cc(S(=O)(=O)NC[C@@H]4CCOC4)ccc3C)cnc2N)n1` [Example 87, (S)-3-(6-Amino-5-(3-methyl-1,2,4-oxadiazol-5-yl)pyridin-3-yl)-4-methyl-N-((tetrahydrofuran-3-yl)methyl)benzenesulfonamide], for which the IC50 was 6.1 µM on PI 4-kinase beta and over 10 µM on Vps34.
The corresponding values for `Cc1noc(-c2cc(-c3cc(S(=O)(=O)NCC4(O)CCOCC4)ccc3C)cnc2N)n1` [Example 51, 3-(6-Amino-5-(3-methyl-1,2,4-oxadiazol-5-yl)pyridin-3-yl)-N-((4-hydroxytetrahydro-2H-pyran-4-yl)methyl)-4-methylbenzenesulfonamide] are over 10 µM and over 10 µM.
Take `Cc1noc(-c2cc(-c3cc(S(=O)(=O)NCC4(O)CC4)ccc3C)cnc2N)n1` [Example 37.19, 3-(6-Amino-5-(3-methyl-1,2,4-oxadiazol-5-yl)pyridin-3-yl)-N-((1-hydroxycyclopropyl)methyl)-4-methylbenzenesulfonamide]: the concentration for half-maximal inhibition (IC50) at PI 4-kinase beta is 8.6 µM; on Vps34 it was over 10 µM.
`Cc1cccc(NS(=O)(=O)c2ccc(C)c(-c3cnc(N)c(-c4nc(C)no4)c3)c2)n1` [Example 72, 3-(6-Amino-5-(3-methyl-1,2,4-oxadiazol-5-yl)pyridin-3-yl)-4-methyl-N-(6-methylpyridin-2-yl)benzenesulfonamide]: the IC50 on PI 4-kinase beta and at Vps34 was over 10 µM each time.
As for `Cc1cc(-c2cc(-c3cc(S(=O)(=O)N[C@H]4CCC[C@H](O)C4)ccc3C)cnc2N)on1` [Example 19.16, 3-(6-amino-5-(3-methylisoxazol-5-yl)pyridin-3-yl)-N-((1S,3S)-3-hydroxycyclohexyl)-4-methylbenzenesulfon-amide trifluoroacetic acid salt], the IC50 was 1.5 µM on PI 4-kinase beta and over 10 µM at Vps34.
In the case of `Cc1ccc(S(=O)(=O)NCCC(C)(C)O)cc1-c1cnc(N)c(-c2nc(CC(F)(F)F)no2)c1` [Example 79, 3-(6-Amino-5-(3-(2,2,2-trifluoroethyl)-1,2,4-oxadiazol-5-yl)pyridin-3-yl)-N-(3-hydroxy-3-methylbutyl)-4-methylbenzenesulfonamide], the results for the IC50 at PI 4-kinase beta and at Vps34 were 2.8 µM and over 10 µM, respectively.
Consider `Cc1noc(-c2cc(-c3cc(S(=O)(=O)NCC4(CO)CCOCC4)ccc3C)cnc2N)n1` [Example 37.10, 3-(6-Amino-5-(3-methyl-1,2,4-oxadiazol-5-yl)pyridin-3-yl)-N-((4-(hydroxymethyl)tetrahydro-2H-pyran-4-yl)methyl)-4-methylbenzenesulfonamide], for which the IC50 at PI 4-kinase beta and at Vps34 was over 10 µM each time.
On to `Cc1noc(-c2cc(-c3cc(S(=O)(=O)NO[C@H]4C[C@H](O)C4)ccc3C)cnc2N)n1` [Example 55, trans-3-(6-Amino-5-(3-methyl-1,2,4-oxadiazol-5-yl)pyridin-3-yl)-N-(3-hydroxycyclobutoxy)-4-methylbenzenesulfonamide], for which the IC50 is 4.7 µM at PI 4-kinase beta and over 10 µM at Vps34.
As for `Cc1ccc(S(=O)(=O)NCC(C)(C)O)cc1-c1cnc(N)c(-c2cn(C)nn2)c1` [Example 63, 3-(6-Amino-5-(1-methyl-1H-1,2,3-triazol-4-yl)pyridin-3-yl)-N-(2-hydroxy-2-methylpropyl)-4-methylbenzenesulfonamide hydrochloride], the concentration for half-maximal inhibition (IC50) at PI 4-kinase beta is 9.6 µM; on Vps34, over 10 µM.
For the compound `Cc1nc(-c2cc(-c3cc(S(=O)(=O)NCCC(C)(C)O)ccc3C)cnc2N)cs1` [Example 93, 3-(6-Amino-5-(2-methylthiazol-4-yl)pyridin-3-yl)-N-(3-hydroxy-3-methylbutyl)-4-methylbenzenesulfonamide], the IC50 at PI 4-kinase beta was 7.5 µM; at Vps34 it was over 10 µM.
Consider `Cc1cc(-c2cc(-c3cc(S(=O)(=O)NC4CC4)ccc3C)cnc2N)on1` [Example 31, 3-(6-Amino-5-(3-methylisoxazol-5-yl)pyridin-3-yl)-N-cyclopropyl-4-methylbenzenesulfonamide], for which the IC50 was 1.26 µM on PI 4-kinase beta and over 10 µM at Vps34.
The matching figures for `Cc1ncc(-c2cc(-c3cc(S(=O)(=O)NCC4(CO)CCOCC4)ccc3C)cnc2N)o1` [Example 104.13, 3-(6-amino-5-(2-methyloxazol-5-yl)pyridin-3-yl)-N-((4-(hydroxymethyl)tetra-hydro-2H-pyran-4-yl)methyl)-4-methylbenzenesulfon-amide]: 3.4 µM and over 10 µM.
With `Cc1noc(-c2cc(-c3cc(S(N)(=O)=O)ccc3C)cnc2N)n1` [Example 75, 3-(6-Amino-5-(3-methyl-1,2,4-oxadiazol-5-yl)pyridin-3-yl)-4-methylbenzenesulfonamide], at PI 4-kinase beta, the IC50 is over 10 µM.
On the same count and under the same terms, the result for `Cc1cc(-c2cc(-c3cc(S(=O)(=O)NCC4(CO)CCOCC4)ccc3C)cnc2N)on1` [Example 37.1, 3-(6-Amino-5-(3-methylisoxazol-5-yl)pyridin-3-yl)-N-((4-(hydroxymethyl)tetrahydro-2H-pyran-4-yl)methyl)-4-methylbenzenesulfonamide] reads 3.5 µM; that for `COCC1CCN(S(=O)(=O)c2ccc(C)c(-c3cnc(N)c(-c4cc(C)no4)c3)c2)CC1` [Example 19.18, 5-(5-((4-(methoxymethyl)piperidin-1-yl)sulfonyl)-2-methylphenyl)-3-(3-methylisoxazol-5-yl)pyridin-2-amine trifluoroacetic acid salt], 3.8 µM; that for `Cc1noc(-c2cc(-c3cc(S(=O)(=O)NCC(C)(F)F)ccc3C)cnc2N)n1` [Example 37.38, 3-(6-Amino-5-(3-methyl-1,2,4-oxadiazol-5-yl)pyridin-3-yl)-N-(2,2-difluoropropyl)-4-methylbenzenesulfonamide], 7.5 µM.
As for `Cc1ccc(S(=O)(=O)NCC(C)(C)O)cc1-c1cnc(N)c(-c2cc(C(=O)N3CCOCC3)no2)c1` [Example 42, 3-(6-Amino-5-(3-(morpholine-4-carbonyl)isoxazol-5-yl)pyridin-3-yl)-N-(2-hydroxy-2-methylpropyl)-4-methylbenzenesulfonamide], on PI 4-kinase beta, the concentration for half-maximal inhibition (IC50) was determined as 2.9 µM.
`Cc1cc(-c2cc(-c3cc(S(=O)(=O)N4CCC[C@H]4CO)ccc3C)cnc2N)on1` [Example 19.15, (S)-(1-((3-(6-amino-5-(3-methylisoxazol-5-yl)pyridin-3-yl)-4-methylphenyl)sulfonyl)pyrrolidin-2-yl)methanol trifluoroacetic acid salt]: the IC50 on PI 4-kinase beta came to 0.9 µM.
On the same count and under the same terms, the result for `COC1(C)CN(S(=O)(=O)c2ccc(C)c(-c3cnc(N)c(-c4cc(C)no4)c3)c2)C1` [Example 37.20, 5-(5-((3-Methoxy-3-methylazetidin-yl)sulfonyl)-2-methylphenyl)-3-(3-methylisoxazol-5-yl)pyridin-2-amine] reads 5.1 µM; that for `Cc1noc(-c2cc(-c3cc(S(=O)(=O)N4CC[C@H](O)C4)ccc3C)cnc2N)n1` [Example 37.32, (S)-1-((3-(6-Amino-5-(3-methyl-1,2,4-oxadiazol-5-yl)pyridin-3-yl)-4-methylphenyl)sulfonyl)pyrrolidin-3-ol hydrochloride], 8.5 µM; that for `COC[C@@H]1COCCN1S(=O)(=O)c1ccc(C)c(-c2cnc(N)c(-c3cc(C)no3)c2)c1` [Example 19.20, (R)-5-(5-((3-(methoxymethyl)morpho-lino)sulfonyl)-2-methylphenyl)-3-(3-methylisoxazol-5-yl)pyridin-2-amine trifluoroacetic acid salt], 4.2 µM.
Take `Cc1noc(-c2cc(-c3cc(S(=O)(=O)NC4CCN(C(C)C)CC4)ccc3C)cnc2N)n1` [Example 37.34, 3-(6-Amino-5-(3-methyl-1,2,4-oxadiazol-5-yl)pyridin-3-yl)-N-(1-isopropylpiperidin-4-yl)-4-methylbenzenesulfonamide]: the IC50 on PI 4-kinase beta is over 10 µM.
Consider `CONS(=O)(=O)c1ccc(C)c(-c2cnc(N)c(-c3nc(C)no3)c2)c1` [Example 46, 3-(6-Amino-5-(3-methyl-1,2,4-oxadiazol-5-yl)pyridin-3-yl)-N-methoxy-4-methylbenzenesulfonamide], for which the 50% inhibitory concentration (IC50) on PI 4-kinase beta is over 10 µM.
For the compound `Cc1cc(-c2cc(-c3cc(S(=O)(=O)N4CC5(CCOC5)C4)ccc3C)cnc2N)on1` [Example 19.1, 5-(5-(6-oxa-2-azaspiro[3.4]octan-2-ylsulfonyl)-2-methylphenyl)-3-(3-methylisoxazol-5-yl)pyridin-2-amine trifluoroacetic acid salt], the IC50 on PI 4-kinase beta stood at 4 µM.
Regarding `Cc1ccc(S(=O)(=O)NCC(C)(C)O)cc1-c1cnc(N)c(-c2ccn(C)c2)c1` [Example 58, 3-(6-Amino-5-(1-methyl-1H-pyrrol-3-yl)pyridin-3-yl)-N-(2-hydroxy-2-methylpropyl)-4-methylbenzenesulfonamide hydrochloride], the IC50 at PI 4-kinase beta came out at 3.2 µM.

(Values after patent publication US10112926B2 (priority 2014, dated 2018).)
